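Grown in 96-well plates, cells were treated for 48 hours with each compound at five concentrations. Insufficient inhibition: endpoint recorded as highest concentration tested. TGI marks complete inhibition of growth.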 Where a SMILES comes first, the peptide text is derived from it. The star is where a group is joined. Boc = CC(C)(C)OC(=O)*
Assays:
Experiment in all cases: NCI-60 cell line screen, 48 h
EKVX NSCLC = tested on: EKVX NSCLC
HCT-116 colon = tested on: HCT-116 colon
HCC-2998 colon = tested on: HCC-2998 colon
SF-295 CNS = tested on: SF-295 CNS
OVCAR-8 ovarian = tested on: OVCAR-8 ovarian
MCF7 breast = tested on: MCF7 breast
UACC-257 melanoma = tested on: UACC-257 melanoma
UO-31 renal = tested on: UO-31 renal
SF-539 CNS = tested on: SF-539 CNS
HT29 colon = tested on: HT29 colon
HCT-15 colon = tested on: HCT-15 colon
MDA-MB-231 breast = tested on: MDA-MB-231 breast
DU-145 prostate = tested on: DU-145 prostate
RXF 393 renal = tested on: RXF 393 renal
T-47D breast = tested on: T-47D breast
NCI-H23 lung = tested on: NCI-H23 lung
HL-60(TB) leukemia = tested on: HL-60(TB) leukemia

Row | Structure (SMILES) | TGI (EKVX NSCLC) | TGI (HCT-116 colon) | TGI (HCC-2998 colon) | TGI (SF-295 CNS) | TGI (OVCAR-8 ovarian) | TGI (MCF7 breast) | TGI (UACC-257 melanoma) | TGI (UO-31 renal) | TGI (SF-539 CNS) | TGI (HT29 colon) | TGI (HCT-15 colon) | TGI (MDA-MB-231 breast) | TGI (DU-145 prostate) | TGI (RXF 393 renal) | TGI (T-47D breast) | TGI (NCI-H23 lung) | TGI (HL-60(TB) leukemia)
1 | Cc1ccc(/C(O)=C/c2nc3ccccc3oc2=O)cc1 | > 100 µM | > 100 µM | > 100 µM | > 100 µM | > 100 µM | > 100 µM | > 100 µM | > 100 µM | > 100 µM | > 100 µM | > 100 µM | > 100 µM | > 100 µM | > 100 µM | > 100 µM | > 100 µM | –
2 | CC(NC(=O)C(NC(=O)OC(C)(C)C)C(C)C)C(=O)N1CCCC1C(=O)NCC(=O)NC(C(=O)NCC(=O)O)C(C)C (stereo unspecified) (Boc-VAPGVG-OH; configuration not given here) | > 100 µM | > 100 µM | > 100 µM | > 100 µM | > 100 µM | > 100 µM | > 100 µM | > 100 µM | > 100 µM | > 100 µM | > 100 µM | > 100 µM | > 100 µM | – | > 100 µM | > 100 µM | > 100 µM
3 | O=c1[nH]nc(Cc2ccccc2)n1/N=C/c1c(O)ccc2ccccc12 | 57.8 µM | 45.6 µM | > 100 µM | 69 µM | 51.9 µM | > 100 µM | > 100 µM | > 100 µM | 42.9 µM | 83.9 µM | > 100 µM | 44.2 µM | > 100 µM | 49.6 µM | 77.1 µM | > 100 µM | –
4 | CSC1=C(C(=O)Nc2ccc(Cl)cc2)C(N)=NC1=O | > 100 µM | > 100 µM | > 100 µM | – | > 100 µM | > 100 µM | > 100 µM | > 100 µM | > 100 µM | > 100 µM | > 100 µM | > 100 µM | > 100 µM | > 100 µM | > 100 µM | > 100 µM | > 100 µM
5 | COc1cc2cc(C(=O)N3CC(CCl)c4c3cc([N+](=O)[O-])c3ccccc43)[nH]c2c(OC)c1OC (stereo unspecified) | > 100 µM | > 100 µM | > 100 µM | 97.7 µM | > 100 µM | > 100 µM | > 100 µM | > 100 µM | > 100 µM | > 100 µM | > 100 µM | > 100 µM | > 100 µM | > 100 µM | > 100 µM | > 100 µM | –
6 | CC(C)(C)OC(=O)N(O)[C@@H]1C=C[C@H](n2cnc3c(N)ncnc32)C1 | > 100 µM | > 100 µM | > 100 µM | > 100 µM | > 100 µM | > 100 µM | > 100 µM | > 100 µM | > 100 µM | – | > 100 µM | > 100 µM | > 100 µM | > 100 µM | > 100 µM | > 100 µM | –
7 | C#CCOC(=O)c1ccccc1O | > 100 µM | > 100 µM | – | > 100 µM | > 100 µM | > 100 µM | > 100 µM | > 100 µM | > 100 µM | – | > 100 µM | > 100 µM | > 100 µM | > 100 µM | > 100 µM | > 100 µM | > 100 µM
8 | C=CCCCC1CCCNC1=O (stereo unspecified) | > 100 µM | > 100 µM | > 100 µM | > 100 µM | > 100 µM | > 100 µM | > 100 µM | > 100 µM | > 100 µM | > 100 µM | > 100 µM | > 100 µM | > 100 µM | > 100 µM | > 100 µM | > 100 µM | –
9 | CC(=O)Oc1ccc2c(c1)Oc1cc(C(C)=O)ccc1C21OC(=O)c2ccccc21 (stereo unspecified) | > 100 µM | > 100 µM | > 100 µM | > 100 µM | > 100 µM | > 100 µM | > 100 µM | > 100 µM | – | > 100 µM | > 100 µM | > 100 µM | > 100 µM | > 100 µM | > 100 µM | > 100 µM | > 100 µM
10 | O=C(/C=C(\O)c1ccc(Cl)cc1)C(=O)N=Nc1c(O)[nH]c2ccc(Br)cc12 | > 100 µM | > 100 µM | > 100 µM | > 100 µM | > 100 µM | > 100 µM | > 100 µM | > 100 µM | > 100 µM | > 100 µM | > 100 µM | > 100 µM | > 100 µM | > 100 µM | > 100 µM | > 100 µM | –
11 | O=C1C=CC2(O[C@H](c3ccccc3)[C@@H](c3ccccc3)O2)C(SC(=O)c2ccccc2)C1 (stereo partly specified) | – | 1.53 µM | – | 6.85 µM | 0.516 µM | 2.83 µM | 3.97 µM | 2.66 µM | 3.29 µM | 3.89 µM | 2.2 µM | 18 µM | > 100 µM | 0.726 µM | 7.89 µM | 3.82 µM | 7.7 µM
12 | Cc1ccc(S(=O)(=O)N2CCN(S(=O)(=O)c3ccc(C)cc3)Cc3ccccc3C2)cc1 | > 100 µM | > 100 µM | > 100 µM | > 100 µM | > 100 µM | > 100 µM | > 100 µM | > 100 µM | > 100 µM | > 100 µM | > 100 µM | > 100 µM | > 100 µM | – | > 100 µM | > 100 µM | > 100 µM
13 | COc1cc(N=CN(C)C)c2ncccc2c1 | > 100 µM | > 100 µM | – | > 100 µM | > 100 µM | > 100 µM | > 100 µM | > 100 µM | > 100 µM | > 100 µM | > 100 µM | > 100 µM | > 100 µM | > 100 µM | > 100 µM | > 100 µM | > 100 µM
14 | O=C(O)CN1CCNCCN(CP(=O)(O)O)CC1 | > 100 µM | > 27.5 µM | > 100 µM | > 100 µM | > 22.9 µM | > 100 µM | > 100 µM | > 100 µM | > 100 µM | – | > 100 µM | > 100 µM | > 100 µM | > 100 µM | > 100 µM | > 100 µM | 8.41 µM
